# Literature values as cited in patent publication US6335361B1, “Method of treating benign forgetfulness” (Juvenon Inc., priority 1999, dated 2002).
# Like-named read-outs stand apart in the source and are kept apart here.
# Assays:
# [1] = tested on: oxidative phosphorylation in skeletal muscles and brains; settings: patients with mitochondrial cytopathies due to enzyme defects
# striatal nerves = settings: mice, Q10 diet four weeks before and one week after MPTP
# mitochondria [2] = settings: through action in the mitochondria
# mice = settings: male mice, life-long supplementation
# [3] = daily supplements up to 200 mg for 6-12 months and 100 mg daily for up to 6 y
# [4] = tested on: human plasma LDL phospholipids; settings: healthy Finnish men and women, Q10 supplementation
# [5] = woman deficient in Q10, 150 mg/kg
# mitochondria [6] = tested on: mitochondria
# [7] = older adults 67-80 years, 8 weeks
# [8] = men over 60, 5 days
# oxidant production = settings: carnitine supplementation
structure (smiles),measurement,setting,value
COc1c(O)c(C)c(C/C=C(\C)CC/C=C(\C)CC/C=C(\C)CC/C=C(\C)CC/C=C(\C)CC/C=C(\C)CC/C=C(\C)CC/C=C(\C)CC/C=C(\C)CCC=C(C)C)c(O)c1OC [ubiquinol-10],oxidative damage to DNA of human lymphocytes,human lymphocytes,appears to protect
"O=C(O)CCCC[C@@H]1CCSS1 [R-α-alipoic acid, R-α-lipoic acid]",ambulatory activity of aged rats,aged rats; aged rats,triple
same,age-related decline in mitochondrial membrane potential,"aged rats; rat, in vivo",restore
same,age-related decrease in oxygen consumption,"aged rats; rat, in vivo",reverse
same,age-related increase in oxidants,"aged rats; rat, in vivo",significantly lower
same,glutathione and ascorbic acid levels,"aged rats; rat, in vivo",to youthful levels
"COC1=C(OC)C(=O)C(C/C=C(\C)CC/C=C(\C)CC/C=C(\C)CC/C=C(\C)CC/C=C(\C)CC/C=C(\C)CC/C=C(\C)CC/C=C(\C)CC/C=C(\C)CCC=C(C)C)=C(C)C1=O [Q10, Coenzyme Q10]","Q10 levels in kidney, heart and brain",rats; Q10 supplementation,not affected
same,lifespan,"rats; male rats, life-long supplementation",did not prolong or shorten
same,plasma and liver levels,rats; supplemented rats,2.6-8.4 times higher
same,oxidative phosphorylation in skeletal muscles and brains,[1],marked improvement
same,"dopamine, higher than control diet",striatal nerves,37%
same,more dense neurons than control diet,striatal nerves,62%
same,effect on doxorubicin-induced oxidant production and mtDNA deletions,cardiac tissue; cardiac tissue,blocks the effects of doxorubicin
same,"programmed cell death, or apoptosis",mitochondria [2],appears to block
same,lifespan,mice,did not prolong or shorten
same,adverse effects,[3],No important adverse effects
same,peroxyl radical-trapping capacity,[4],doubled
same,clinical response,[5],rapidly improved
"CC(=O)O[C@H](CC(=O)[O-])C[N+](C)(C)C [ALC, acetyl-L-carnitine]","age-related decrease in cardiolipin, mtDNA transcription and membrane potential",mitochondria [6],reverse
same,age-related dysfunction of carnitine-acetyl-carnitine exchange across the inner mitochondrial membrane,mitochondria [6],slow or reverse
COc1cccc2c1C(=O)c1c(O)c3c(c(O)c1C2=O)C[C@@](O)(C(=O)CO)C[C@@H]3O[C@H]1C[C@H](N)[C@H](O)[C@H](C)O1 [doxorubicin],mitochondrial oxidant production,cardiac tissue; doxorubicin by itself,stimulates
same,mtDNA deletions in cardiac tissue,cardiac tissue; doxorubicin by itself,marked increase
CN(CC(=O)O)C(=N)N [creatine],time to exhaustion,phosphocreatine (PCr); both groups combined,increased
same,increase of resting PCr,"phosphocreatine (PCr); middle-aged group (50-year-olds), P<0.05",30%
same,mean initial PCr resynthesis rate,"phosphocreatine (PCr); middle-aged group, P<0.05",increased significantly
same,increase of resting PCr,"phosphocreatine (PCr); young group (30-year-olds), P<0.05",15%
same,safety,1.5 g-25 g/day for at least a year,safe
same,adverse effects,"athletes, up to 75 grams a day for years, aside from weight gain",without known adverse effects
same,skeletal muscle strength and endurance,"older individuals (40-73), 20 g/day, one week",increased
same,"1- and 12-repetitions maxima, effect of creatine supplementation",[7],no beneficial effect
same,isokinetic performance and body mass,[8],only small increases
same,isometric strength,[8],no effect
C[N+](C)(C)C[C@H](O)CC(=O)[O-] [L-carnitine],"age-related decrease in cardiolipin, mtDNA transcription and membrane potential",mitochondria [6],reverse
same,age-related dysfunction of carnitine-acetyl-carnitine exchange across the inner mitochondrial membrane,mitochondria [6],slow or reverse
C[N+](C)(C)CC(O)CC(=O)[O-] (stereo not drawn) [carnitine],cell antioxidants,oxidant production,decreased cell antioxidants markedly
same,increase of oxidant production,oxidant production,30%
